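A five-concentration, 48-hour dose response in 96-well plates underlies each endpoint, interpolated linearly between surrounding concentrations. The concentration for 50% growth inhibition is given as GI50. Definition used: TGI = concentration required for complete inhibition of growth.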
Columns and labels:
Assay in all cases: NCI tumour cell line growth inhibition, 48 h
[1] = test system: CCRF-CEM leukemia
[2] = test system: HCC-2998 colon
[3] = test system: HCT-15 colon
[4] = test system: MCF7 breast
[5] = test system: NCI/ADR-RES ovarian
[6] = test system: RXF 393 renal
[7] = test system: SK-MEL-2 melanoma
[8] = test system: SK-MEL-28 melanoma
[9] = test system: SW-620 colon
[10] = test system: U251 CNS

| SMILES | GI50 [1] [µM] | TGI [1] [µM] | GI50 [2] [µM] | TGI [2] [µM] | GI50 [3] [µM] | TGI [3] [µM] | GI50 [4] [µM] | TGI [4] [µM] | GI50 [5] [µM] | TGI [5] [µM] | GI50 [6] [µM] | TGI [6] [µM] | GI50 [7] [µM] | TGI [7] [µM] | GI50 [8] [µM] | TGI [8] [µM] | GI50 [9] [µM] | TGI [9] [µM] | GI50 [10] [µM] | TGI [10] [µM] |
| --- | --- | --- | --- | --- | --- | --- | --- | --- | --- | --- | --- | --- | --- | --- | --- | --- | --- | --- | --- | --- |
| O=C1NC(=O)C(c2ccc(Cl)cc2)=C1Nc1ccc(Cl)c(C(=O)O)c1 | > 25 | > 25 | > 25 | > 25 | > 25 | > 25 | > 25 | > 25 | > 25 | > 25 | > 25 | > 25 | > 25 | > 25 | > 25 | > 25 | > 25 | > 25 | > 25 | > 25 |
| COc1ccc2nc(NCN3C(=O)c4ccccc4C3=O)sc2c1 | – | > 100 | – | – | – | > 100 | – | > 100 | – | > 100 | – | > 100 | – | > 100 | – | > 100 | – | > 100 | – | > 100 |
| O=C1c2cc(-c3ccccc3)ccc2-c2c1c1ccc([N+](=O)[O-])cc1c(=O)n2CCCBr | 0.16 | 0.6 | > 50 | > 50 | > 50 | > 50 | > 46.4 | > 50 | > 50 | > 50 | > 26.3 | > 43.7 | > 50 | > 50 | > 50 | > 50 | > 50 | > 50 | > 31.9 | > 50 |
| COc1ccc2nc3cc([N+](=O)[O-])ccc3c(NCCCN(CCO)CCO)c2c1 | 3.78 | 14.6 | 2.87 | 7.88 | 12.8 | 25.4 | 0.889 | 4.95 | 15.9 | 39.9 | 2.93 | 11.5 | 1.49 | 3.2 | 3.93 | 13 | 3.15 | 12.3 | 3.57 | 13.4 |
| CN1CCN(C(=O)c2c(NC(=O)NS(=O)(=O)c3ccccc3)sc3c2CCCCC3)CC1 | 32.8 | > 100 | 21.9 | 44.2 | 26.3 | 74.6 | 52.7 | > 100 | 34 | > 100 | 34 | > 100 | 60.3 | > 100 | – | – | 43.9 | > 100 | – | – |
| CCN(CC)CCCC(C)Nc1c2ccc(Cl)cc2nc2cc(OC)c(OC)cc12 (stereo not drawn) | 1.52 | 10.3 | 1.49 | 3 | 1.2 | 3.49 | 0.656 | 2.9 | 2.47 | 9.69 | 1.3 | 2.67 | 2.64 | 5.73 | 1.72 | 3.37 | 1.35 | 7.54 | – | – |
| O=CC(Br)C(Br)c1ccccc1 (stereo not drawn) | 0.374 | 1.94 | 15.1 | 29.4 | 0.913 | 2.93 | 0.478 | 2.23 | 4.77 | 27.7 | 1.82 | 3.78 | 2.85 | 9.11 | 2.31 | 6.35 | 0.776 | 2.33 | 7.4 | 20.4 |

Reference: PubChem BioAssay (NCI)
